Consider 1 compound from ChEMBL document CHEMBL4706513, “New insight into 20(S)-ginsenoside Rh2 against T-cell acute lymphoblastic leukemia associated with the gut microbiota and the immune system” (2020).

The source made the active and inactive calls. The rule behind the calls is not given here.

Assay [1] relates to Mus musculus. Nature of the assay: Induction of intestinal homeostasis in SCID/NOD mouse xenografted with human Jurkat cells assessed as upregulation of secretion of IgA from B cells in colon at 40 mg/kg, po administered once a day for 3 weeks by western blot analysis. Format: functional, organism-based. The conditions noted are these: dose 40.0 mg/kg/day. Background: A xenograft is tissue or cells of one species grown in another, often human tumour cells in immunodeficient mice.

Assay [2] deals with Mus musculus. Nature of the assay: Induction of intestinal homeostasis in SCID/NOD mouse xenografted with human Jurkat cells assessed as increase in Reg3b expression in colon at 40 mg/kg, po administered once a day for 3 weeks by Western blot analysis. The assay is classed as functional, organism-based. The conditions noted are these: dose 40.0 mg/kg/day.
Assay [3] deals with Mus musculus. Briefly: Induction of intestinal homeostasis in SCID/NOD mouse xenografted with human Jurkat cells assessed as increase in Reg3g expression in colon at 40 mg/kg, po administered once a day for 3 weeks by Western blot analysis. The assay is classed as functional, organism-based. To be noted: dose 40.0 mg/kg/day.
For assay [4], the system named is Mus musculus. Briefly: Inhibition of intestinal inflammation in SCID/NOD mouse xenografted with human Jurkat cells assessed as decrease in TLR4 expression in colon at 40 mg/kg, po administered once a day for 3 weeks by Western blot analysis. The conditions noted are these: dose 40.0 mg/kg/day. Format: functional, organism-based.
Assay [5] deals with Mus musculus. Briefly: Inhibition of intestinal inflammation in SCID/NOD mouse xenografted with human Jurkat cells assessed as decrease in MYD88 expression in colon at 40 mg/kg, po administered once a day for 3 weeks by Western blot analysis. The assay is classed as functional, organism-based. The conditions noted are these: dose 40.0 mg/kg/day.
Assay [6] concerns Mus musculus. Briefly: Inhibition of intestinal inflammation in SCID/NOD mouse xenografted with human Jurkat cells assessed as decrease in LPS level in colon at 40 mg/kg, po administered once a day for 3 weeks by ELISA. Format: functional, organism-based. To be noted: dose 40.0 mg/kg/day.
For assay [7], the system named is Mus musculus. Briefly: Inhibition of intestinal inflammation in SCID/NOD mouse xenografted with human Jurkat cells assessed as decrease in TNFalpha level in colon at 40 mg/kg, po administered once a day for 3 weeks by ELISA. The assay is classed as functional, organism-based. To be noted: dose 40.0 mg/kg/day.
In assay [8] the test system is Mus musculus. Briefly: Inhibition of intestinal inflammation in SCID/NOD mouse xenografted with human Jurkat cells assessed as decrease in IL1beta level in colon at 40 mg/kg, po administered once a day for 3 weeks by ELISA. The assay is classed as functional, organism-based. The conditions noted are these: dose 40.0 mg/kg/day.
For assay [9], the system named is Mus musculus. Briefly: Inhibition of intestinal inflammation in SCID/NOD mouse xenografted with human Jurkat cells assessed as decrease in IL-6 level in colon at 40 mg/kg, po administered once a day for 3 weeks by ELISA. The conditions noted are these: dose 40.0 mg/kg/day. Format: functional, organism-based.
For assay [10], the system named is Mus musculus. Nature of the assay: Inhibition of intestinal inflammation in SCID/NOD mouse xenografted with human Jurkat cells assessed as increase in IL-10 level in colon at 40 mg/kg, po administered once a day for 3 weeks by ELISA. To be noted: dose 40.0 mg/kg/day. The assay is classed as functional, organism-based.
The test system of assay [11] is Mus musculus. Nature of the assay: Inhibition of intestinal inflammation in SCID/NOD mouse xenografted with human Jurkat cells assessed as increase in TGFbeta level in colon at 40 mg/kg, po administered once a day for 3 weeks by ELISA. Format: functional, organism-based. To be noted: dose 40.0 mg/kg/day.
Assay [12] relates to Mus musculus. Briefly: Induction of intestinal homeostasis in SCID/NOD mouse xenografted with human Jurkat cells assessed as decrease in disordered arrangement of epithelial cells in the colon at 40 mg/kg, po administered once a day for 3 weeks by AB-PAS staining based microscopic analysis. The conditions noted are these: dose 40.0 mg/kg/day. Format: functional, organism-based.

For assay [13], the system named is Mus musculus. Nature of the assay: Inhibition of intestinal dysbiosis in SCID/NOD mouse xenografted with human Jurkat cells assessed as increase in abundance of Bacteroidetes in cecum at 40 mg/kg, po administered once a day for 3 weeks by multiplexed 16S rRNA gene sequencing analysis. The conditions noted are these: dose 40.0 mg/kg/day. The assay is classed as functional, organism-based.

Assay [14] concerns Mus musculus. Briefly: Inhibition of intestinal dysbiosis in SCID/NOD mouse xenografted with human Jurkat cells assessed as increase in abundance of Verrucomicrobia in cecum at 40 mg/kg, po administered once a day for 3 weeks by multiplexed 16S rRNA gene sequencing analysis. The assay is classed as functional, organism-based. The conditions noted are these: dose 40.0 mg/kg/day.

Assay [15] deals with Mus musculus. Briefly: Inhibition of intestinal dysbiosis in SCID/NOD mouse xenografted with human Jurkat cells assessed as decrease in abundance of Firmicutes in cecum at 40 mg/kg, po administered once a day for 3 weeks by multiplexed 16S rRNA gene sequencing analysis. Format: functional, organism-based. To be noted: dose 40.0 mg/kg/day.
The test system of assay [16] is Mus musculus. Briefly: Inhibition of intestinal dysbiosis in SCID/NOD mouse xenografted with human Jurkat cells assessed as decrease in abundance of Proteobacteria in cecum at 40 mg/kg, po administered once a day for 3 weeks by multiplexed 16S rRNA gene sequencing analysis. The assay is classed as functional, organism-based. To be noted: dose 40.0 mg/kg/day.
The test system of assay [17] is Mus musculus. Briefly: Inhibition of intestinal dysbiosis in SCID/NOD mouse xenografted with human Jurkat cells assessed as decrease in ratio of Firmicutes to Bacteroidetes in cecum at 40 mg/kg, po administered once a day for 3 weeks by multiplexed 16S rRNA gene sequencing analysis. To be noted: dose 40 mg/kg/day. Format: functional.
The test system of assay [18] is Mus musculus. Briefly: Inhibition of intestinal dysbiosis in SCID/NOD mouse xenografted with human Jurkat cells assessed as increase in abundance of Akkermansia in cecum at 40 mg/kg, po administered once a day for 3 weeks by multiplexed 16S rRNA gene sequencing analysis. To be noted: dose 40.0 mg/kg/day. The assay is classed as functional, organism-based.
For assay [19], the system named is Mus musculus. Nature of the assay: Inhibition of intestinal dysbiosis in SCID/NOD mouse xenografted with human Jurkat cells assessed as increase in abundance of Lactobacillus in cecum at 40 mg/kg, po administered once a day for 3 weeks by multiplexed 16S rRNA gene sequencing analysis. The conditions noted are these: dose 40.0 mg/kg/day. The assay is classed as functional, organism-based.

The subject of assay [20] is Mus musculus. Nature of the assay: Inhibition of intestinal dysbiosis in SCID/NOD mouse xenografted with human Jurkat cells assessed as increase in abundance of Lachnospiraceae_ NK4A136_group in cecum at 40 mg/kg, po administered once a day for 3 weeks by multiplexed 16S rRNA gene sequencing analysis. Format: functional, organism-based. To be noted: dose 40.0 mg/kg/day.

The subject of assay [21] is Mus musculus. Nature of the assay: Inhibition of intestinal dysbiosis in SCID/NOD mouse xenografted with human Jurkat cells assessed as decrease in abundance of parabacteroides in cecum at 40 mg/kg, po administered once a day for 3 weeks by multiplexed 16S rRNA gene sequencing analysis. Format: functional, organism-based. To be noted: dose 40.0 mg/kg/day.
Assay [22] relates to Mus musculus. Briefly: Inhibition of intestinal dysbiosis in SCID/NOD mouse xenografted with human Jurkat cells assessed as decrease in abundance of Alistipes in cecum at 40 mg/kg, po administered once a day for 3 weeks by multiplexed 16S rRNA gene sequencing analysis. Format: functional, organism-based. To be noted: dose 40.0 mg/kg/day.
In assay [23] the test system is Mus musculus. Briefly: Induction of intestinal homeostasis in SCID/NOD mouse xenografted with human Jurkat cells assessed as decrease in enlarged colon tissue at 40 mg/kg, po administered once a day for 3 weeks by AB-PAS staining based microscopic analysis. The conditions noted are these: dose 40.0 mg/kg/day. The assay is classed as functional, organism-based.
In assay [24] the test system is Mus musculus. Briefly: Induction of intestinal homeostasis in SCID/NOD mouse xenografted with human Jurkat cells assessed as reduction in crypt depth in colon at 40 mg/kg, po administered once a day for 3 weeks by AB-PAS staining based microscopic analysis. The assay is classed as functional, organism-based. The conditions noted are these: dose 40.0 mg/kg/day.

For `CC(C)=CCC[C@](C)(O)[C@H]1CC[C@]2(C)[C@@H]1[C@H](O)C[C@@H]1[C@@]3(C)CC[C@H](O[C@@H]4O[C@H](CO)[C@@H](O)[C@H](O)[C@H]4O)C(C)(C)[C@@H]3CC[C@]12C` [GINSENOSIDE RH2], the result in the assay with Mus musculus [1], in the assay on Mus musculus [2], in the assay on Mus musculus [3], in the assay on Mus musculus [12], in the assay with Mus musculus [23] and in the assay on Mus musculus [24] was Active. The inhibition result in the assay with Mus musculus [4], with Mus musculus [5], in the assay on Mus musculus [6], with Mus musculus [7], with Mus musculus [8] and in the assay with Mus musculus [9] was “Active” throughout. The inhibition result in the assay on Mus musculus [10], in the assay with Mus musculus [11], in the assay on Mus musculus [13], in the assay with Mus musculus [14], in the assay on Mus musculus [15] and with Mus musculus [16] was “Active” in each case. Besides, the inhibition result with Mus musculus [18], in the assay on Mus musculus [19], in the assay on Mus musculus [20], in the assay with Mus musculus [21] and in the assay with Mus musculus [22] was “Active” throughout. For the same compound, in the assay with Mus musculus [17], the Ratio worked out at 0.47.
